Assay results as given in US4337339A, “Process for preparation of folic acid derivatives” (Baker Instruments Corp., priority 1979, dated 1982).

Assays:
whole milk folate binder = whole milk folate binder (Bos taurus, UniProt P02702); assay: competitive protein binding (CPB) radioassay for folates using pteroyltyrosine [125I] as radiolabel; conditions: for dose response curves generated using pteroyltyrosine [125I] as label, folic acid versus N5-methyl THF: at high pH compared with lower pH; for behaviour in the folate competitive protein binding assay of radiolabel made from directly coupled p-aminobenzoyltyrosine product, compared with label from the hydrolyzed ester: pteroyltyrosine from 6-formylpterin + H-PABA-L-Tyr-OH (Example 1f(2)), radioiodinated, gel chromatography
Procedure: The use of the Centria® analytical system, Union Carbide Corporation, in this example, is meant to be illustrative and other methods, both automated and manual, obvious to those skilled in the clinical diagnostic art are also within the scope of this invention.
Briefly, the Centria® system is a tri-modular instrument in which reagents are pipetted on to a multiwell transfer disk and mixed centrifugally with standards or patients' samples. After a suitable incubation period, the components are separated by a centrifugal elution of the bound and free fractions and the bound fractions counted three at a time.
Folic acid and N^5 -methyltetrahydrofolic acid standards in the range 0-20 nanograms/milliliter were prepared in 0.05 M sodium borate, pH 9.3 containing 0.1% human serum albumin. The whole milk binder was prepared according to the method of Rothenberg et al., (3) and dissolved in sodium borate, pH 9.3 containing 0.1% human serum albumin.
(50 microliters, 20,000 cpm) plus 85 microliters of water with the limited number of binding sites contained in a 200 microliter solution of whole milk folate binder. The binding reactions may be shown as follows:
After a 10 minute incubation, the reaction mixture was centrifugally transferred onto DEAE Sephadex A-25 columns (0.75×4 in.) where separation of complexed folate from free folate was effected with 1.4 ml of elution buffer
(3) S. Rothenberg, M. DaCosta, and Z. Rosenberg, New Eng.
A gamma counter which counts three of the 36 positions at a time for one minute, so constructed that only the eluate bottom portion of the test tubes fits into the counter, was then used to count all samples. Sequential counting of the tubes thus required about 12 minutes. A small computer with printout capability then printed out the data after completion of the cycle.

[1] = storage stability of the radioiodinated product, judged by assay performance; format: physicochemical; conditions: ten-week period, stored in 50% aqueous propylene glycol solution
From the text: Radioiodination of biological compounds frequently leads to marked chemical instability and subsequent degradation of the radiolabel. This problem is often accentuated in the radiolabel when the materials to be radioiodinated are known to be sensitive to oxygen, light or extremes in pH, as is the case with folic acid and some derivatives.
The reaction mixture was applied to a 1×20 cm Sephadex G25, fine, (Pharmacia Fine Chemicals, Uppsala, Sweden) column hydrated with distilled water and equilibrated with 0.1 M potassium phosphate, pH 7.5. The column was eluted with 0.1 M potassium phosphate buffer and 3 ml fractions collected. The product "peak" fractions 32-34 were collected, diluted 1:1 with propylene glycol and stored below 0° C.

carboxypeptidase A = assay: enzymatic hydrolysis of pteroyltyrosine followed by UV spectrophotometry; format: biochemical; conditions: two hours, ambient temperature, Tris-HCl with zinc chloride pH 7.3
Procedure: Two millilters of a solution of pteroyltrosine ([…]) in 0.025 M Tris-HCl containing 2 mM zinc chloride, pH 7.3 were diluted to 10 ml with distilled water. A portion of this solution (2 ml) was placed in a 1 cm cuvette and in another was placed 2 ml of distilled water. To each of the cuvettes was added 50 μl of a solution of 100 μl carboxypeptidase A suspension (Aldrich chemical, lot (060637) diluted with 0.9 ml of 10% lithium chloride.
The time course of the reaction was followed spectrophotometrically (uv) over a period of two hours at ambient temperature. An increase and shift in max from 280 to 277 nm and a marked decrease in absorption at 220 nm was observed. Two isobestic points at 242 and 282 nm were visible.

whole milk folate binder, sequence (P02702 20-234): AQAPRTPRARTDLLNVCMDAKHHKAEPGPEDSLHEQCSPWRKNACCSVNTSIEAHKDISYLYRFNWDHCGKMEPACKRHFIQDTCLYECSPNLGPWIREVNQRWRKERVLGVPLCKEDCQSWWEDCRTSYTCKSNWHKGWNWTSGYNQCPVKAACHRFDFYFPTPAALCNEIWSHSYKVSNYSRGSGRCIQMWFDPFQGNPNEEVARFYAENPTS

CN1c2c(O)nc(N)nc2NCC1CNc1ccc(C(=O)N[C@@H](CCC(=O)O)C(=O)O)cc1 (stereo partly shown) [N^5 -methyl THF, N-5-methyltetrahydrofolic acid, reference compound]
dose response curves generated using pteroyltyrosine [125I] as label, folic acid versus N5-methyl THF (whole milk folate binder): more nearly coincident than at lower pH

Nc1nc2ncc(CNc3ccc(C(=O)N[C@@H](CCC(=O)O)C(=O)O)cc3)nc2c(=O)[nH]1 [folic acid]
dose response curves generated using pteroyltyrosine [125I] as label, folic acid versus N5-methyl THF (whole milk folate binder): more nearly coincident than at lower pH

Nc1nc(O)c2nc(CNc3ccc(C(=O)N[C@@H](Cc4ccc(O)c([125I])c4)C(=O)O)cc3)cnc2n1 [pteroyltyrosine [^125 I]]
stability of radioiodinated product (assay performance on storage) [1]: no deterioration in assay performance
performance as radiolabel in CPB radioassay for folic acid (whole milk folate binder; folic acid concentration range 0-20 ng/ml): effective radiolabel

Nc1nc2ncc(CNc3ccc(C(=O)N[C@@H](Cc4ccc(O)cc4)C(=O)O)cc3)nc2c(=O)[nH]1 [pteroyltyrosine, Pteroyl-L-Tyrosine]
behaviour in the folate competitive protein binding assay of radiolabel made from directly coupled p-aminobenzoyltyrosine product, compared with label from the hydrolyzed ester (whole milk folate binder): functioned identically
behaviour in the folate competitive protein binding assay of radiolabel made from directly coupled p-aminobenzoyltyrosine product, compared with label from the hydrolyzed ester (whole milk folate binder; listed as Pt-L-Tyr-OH): identically
UV spectral change on treatment with carboxypeptidase A (hydrolysis) (carboxypeptidase A): final spectrum was very similar to that of pteroic acid
